Data from publication PMC3997074, “Pharmacokinetic and Biodistribution Assessment of a Near Infrared-Labeled PSMA-Specific Small Molecule in Tumor-Bearing Mice” (Prostate Cancer, 2014).

Tests used:
[1] = target: T1, prostate-specific membrane antigen (PSMA) (Homo sapiens, UniProt Q04609); experiment: competition of YC-27 […]CW binding to LNCaP cells; format: cell-based
T1 construct: gene FOLH1

[2] = target: T1, prostate-specific membrane antigen (PSMA); experiment: NIR fluorescence saturation binding to PSMA-positive […]1 cells (PSMA-negative PC3 M-LN4 control; LNCaP apparent Kd […]); format: cell-based

T1 sequence (Q04609 whole entry): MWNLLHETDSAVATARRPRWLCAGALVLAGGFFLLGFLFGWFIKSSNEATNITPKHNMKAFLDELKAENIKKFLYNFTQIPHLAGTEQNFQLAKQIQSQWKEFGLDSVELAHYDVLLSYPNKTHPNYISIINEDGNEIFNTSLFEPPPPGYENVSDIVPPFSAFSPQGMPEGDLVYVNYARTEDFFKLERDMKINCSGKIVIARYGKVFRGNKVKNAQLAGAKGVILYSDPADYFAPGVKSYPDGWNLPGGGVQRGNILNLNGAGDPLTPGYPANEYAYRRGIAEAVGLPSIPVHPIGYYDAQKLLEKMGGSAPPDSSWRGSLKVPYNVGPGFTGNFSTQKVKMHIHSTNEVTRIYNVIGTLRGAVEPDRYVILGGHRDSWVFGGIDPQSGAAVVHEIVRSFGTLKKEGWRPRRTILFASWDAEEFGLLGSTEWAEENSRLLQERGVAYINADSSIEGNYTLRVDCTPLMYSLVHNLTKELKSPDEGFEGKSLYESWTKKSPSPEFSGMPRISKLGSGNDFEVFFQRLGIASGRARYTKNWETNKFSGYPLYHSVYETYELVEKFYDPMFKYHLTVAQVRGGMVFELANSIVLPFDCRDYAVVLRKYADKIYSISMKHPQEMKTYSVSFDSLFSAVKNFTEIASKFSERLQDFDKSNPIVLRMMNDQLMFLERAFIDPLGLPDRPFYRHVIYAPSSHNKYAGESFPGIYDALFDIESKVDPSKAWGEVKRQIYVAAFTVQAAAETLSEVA

In the case of unlabeled YC-27, the IC50 [1] is reported as 1700 nM.
For YC-27 800CW, the Kd [2] was 8 nM.
